Measured values: patent publication US9090549B2, “1,4-naphthoquinones derivatives and therapeutic use thereof” (CENTRE NATIONAL DE LA RECHERCHE SCIENTIFIQUE (C.N.R.S.), priority 2008, dated 2015)
Read-outs that look alike come from different tables or passages of the source.

Key:
Pf-GHA = Pf-GHA growth inhibition, colorimetric NBT-based lactate dehydrogenase assay; assay type: cell-based; conditions: Plasmodium falciparum, read-out: IC50 against Pf-GHA
Protocol: The IC50 values against Pf-GHA and MRC-5 were determined by using the less sensitive colorimetric NBT-based lactate dehydrogenase assay (Makler et al, Am. J. Trop. Med. Hyg. 1993, 48 (6), 739-741) based on redox-reactions.
In Vitro Antiparasitic Bioassays. The strain is maintained in RPMI-1640 medium supplemented with 0.37 mM hypoxanthine, 25 mM HEPES, 25 mM NaHCO3, and 10% O^+ human serum together with 2-4% washed human O^+ erythrocytes. All cultures and assays are conducted under an atmosphere of 4% CO2, 3% O2 and 93% N2. Assays are performed in 96-well microtiter plates, each well containing 10 μL of the watery compound dilutions together with 190 μL of the malaria parasite inoculum (1% parasitaemia, 2% HCT). After 72 h incubation, plates are frozen and stored at −20° C. After thawing, 20 μL of each well is transferred into another plate together with 100 μL Malstat reagent and 20 μL of 1/1 mixture of PES (phenazine ethosulfate, 0.1 mg/mL) and NBT (Nitro Blue Tetrazolium Grade III, 2 mg/mL). Change in colour is measured spectrophotometrically at 655 nm. The results are expressed as % reduction in parasitaemia compared to control wells. Compounds are treated at 5 concentrations (64-16-4-1 and 0.25 μM or μg/mL).

[1] = system: P. falciparum multidrug-resistant strain Dd2; assay: Dd2 growth inhibition, 3H-hypoxanthine assay; assay type: cell-based, Plasmodium falciparum; conditions: for IC50: Plasmodium falciparum, DD2, 48 h exposure then 24 h hypoxanthine, read-out: IC50 against Dd2
Protocol: The IC50 was tested by standard in vitro antiproliferation assays (Desjardins et al, 1979 Antimicrob. Agents Chemother 1979, 16, 710-718). Infected erythrocytes in ring stage (0.5% parasitemia, 2.5% hematocrit) in 96-well plates were exposed to the compounds for 48 h and then to radioactive hypoxanthine for 24 h. The amount of radioactivity in precipitable material served as an index of cell proliferation.

P. berghei ANKA = assay: In vivo 4-day suppressive test in P. berghei-infected mice; parameters: species or system Plasmodium berghei; conditions: intraperitoneal
Protocol: The in vivo tests in the mouse model were done according to a standard protocol (Peters et al Handbook of Animal Models of Infection; Academic Press, London, 1999; pp. 756-771). […] […] For administration, compounds were freshly prepared in 10% DMSO in sterile phosphate-buffered saline the day of use. Two hours post-infection mice received the first treatment by the intraperitoneal route. Mice were further treated on days +1-3. Blood films from tail blood were prepared on day +4, and parasitaemia was determined by microscopic examination of Giemsa-stained blood films. […] […] Mice were treated and levels of parasitemia determined as described.

melting point | Compound | further results
163 to 164 °C | CC1=C(Cc2ccc(Br)cc2)C(=O)C2C(O)=CC=CC2C1=O (stereo not shown) [P_TM42, 3-(4-Bromo-benzyl)-5-hydroxy-2-methyl-4a,8a-dihydro-[1,4]naphthoquinone] | IC50 (Pf-GHA; 72 h incubation): < 5 µM
– | O=C1C(O)=C([C@H]2CC[C@H](c3ccc(Cl)cc3)CC2)C(=O)c2ccccc21 [atovaquone, reference compound] | IC50 [1]: < 0.0001 µM; IC50 (Pf-GHA; 72 h incubation): 0.31 µM
156 to 157 °C | CC1=C(Cc2ccc([N+](=O)[O-])cc2)C(=O)C2C=CC=CC2C1=O (stereo not shown) [P_TM37, 2-Methyl-3-(4-nitro-benzyl)-4a,8a-dihydro-[1,4]naphthoquinone] | reduction in parasitaemia (P. berghei ANKA; daily dose of 30 mg/kg, 4-day test, mice): 42.4%; activity on 4-day treatment (P. berghei ANKA; P. berghei-infected mice): significant activity
102 to 103 °C | COc1ccc(CC2=C(C)C(=O)C3C=CC=CC3C2=O)cc1OC (stereo not shown) [P_TM54, 2-(3,4-Dimethoxy-benzyl)-3-methyl-4a,8a-dihydro-[1,4]naphthoquinone] | –
67 to 68 °C | COc1c(C)c(C(O)c2ccc(Br)cc2)c(OC)c2ccccc12 (stereo not shown) [P_TM7, (4-Bromo-phenyl)-(1,4-dimethoxy-3-methyl-naphthalen-2-yl)-methanol] | –
159 to 160 °C | CC1=C(Cc2ccc(C#N)cc2)C(=O)C2C=CC=CC2C1=O (stereo not shown) [P_TM41, 2-Methyl-3-(4-cyano-benzyl)-4a,8a-dihydro-[1,4]naphthoquinone] | IC50 [1]: < 0.1 µM; IC50 (Pf-GHA; 72 h incubation): < 5 µM
64 to 65 °C | CC1=C(Cc2ccc(C(C)C)cc2)C(=O)C2C=CC=CC2C1=O (stereo not shown) [P_TM100, 2-Methyl-3-(4-isopropyl-benzyl)-4a,8a-dihydro-[1,4]naphthoquinone] | –
103 to 105 °C | COc1ccc(CC2=C(C)C(=O)C3C=CC=CC3C2=O)c(OC)c1 (stereo not shown) [P_TM56, 2-(2,4-Dimethoxy-benzyl)-3-methyl-4a,8a-dihydro-[1,4]naphthoquinone] | –
134 to 135 °C | CC1=C(Cc2ccc(Cl)cc2)C(=O)C2C=CC=CC2C1=O (stereo not shown) [P_TM30, 2-Methyl-3-(4-chloro-benzyl)-4a,8a-dihydro-[1,4]naphthoquinone] | IC50 [1]: < 0.1 µM; IC50 (Pf-GHA; 72 h incubation): < 5 µM
112 to 113 °C | COc1ccc(CC2=C(C)C(=O)C3C=CC=CC3C2=O)cc1 (stereo not shown) [P_TM31, 2-Methyl-3-(4-methoxy-benzyl)-4a,8a-dihydro-[1,4]naphthoquinone] | IC50 [1]: < 0.1 µM
112 to 113 °C | CC1=C(Cc2ccc(C(C)(C)C)cc2)C(=O)c2c(O)cccc2C1=O [P_TM81, 3-(4-tert-Butyl-benzyl)-5-hydroxy-2-methyl-[1,4]naphthoquinone] | IC50 (Pf-GHA; 72 h incubation): < 5 µM
– | C[C@H]1[C@H](OC(=O)CCC(=O)O)O[C@@H]2O[C@@]3(C)CC[C@H]4[C@H](C)CC[C@@H]1[C@@]24OO3 [Artesunate, reference compound] | IC50 (Pf-GHA; 72 h): 0.005 µM
152 to 153 °C | CC1=C(Cc2ccc(N)cc2)C(=O)C2C=CC=CC2C1=O (stereo not shown) [P_TM103, 2-Methyl-3-(4-amino-benzyl)-4a,8a-dihydro-[1,4]naphthoquinone] | –
117 to 118 °C | COc1ccccc1CC1=C(C)C(=O)C2C=CC=CC2C1=O (stereo not shown) [P_TM32, 2-Methyl-3-(2-methoxy-benzyl)-4a,8a-dihydro-[1,4]naphthoquinone] | IC50 [1]: < 0.1 µM
64 to 65 °C | CC1=C(C(=O)c2ccc(C(C)(C)C)cc2)C(=O)C2C=CC=CC2C1=O (stereo not shown) [P_TM48, 2-Methyl-3-(4-tertbutyl-benzoyl)-4a,8a-dihydro-[1,4]naphthoquinone] | –
206 to 208 °C | CC1=C(Cc2ccc(C(=O)O)cc2)C(=O)C2C=CC=CC2C1=O (stereo not shown) [P_TM50, 4-(3-Methyl-1,4-dioxo-1,4,4a,8a-tetrahydro-naphthalen-2-ylmethyl)-benzoic acid] | –
185 to 186 °C | CC1=C(C(=O)c2ccc(C#N)cc2)C(=O)C2C=CC=CC2C1=O (stereo not shown) [P_TM46, 2-Methyl-3-(4-cyano-benzoyl)-4a,8a-dihydro-[1,4]naphthoquinone] | IC50 (Pf-GHA; 72 h incubation): < 5 µM
140 to 142 °C | COc1ccc(OC)c(CC2=C(C)C(=O)C3C=CC=CC3C2=O)c1 (stereo not shown) [P_TM60, 2-(2,5-Dimethoxy-benzyl)-3-methyl-4a,8a-dihydro-[1,4]naphthoquinone] | IC50 [1]: < 0.1 µM

melting point | Compound | further results
– | CCCCC(C1=C(C)C(=O)c2ccccc2C1=O)c1ccc(-c2ccc([N+](=O)[O-])cc2)cc1 (stereo not shown) [P_TM67, 2-(4′-nitro-Butyl-biphenyl-4-ylmethyl)-3-methyl-[1,4]naphthoquinone] | IC50 (Pf-GHA; 72 h incubation): < 5 µM
74 °C | O=C1C=C(C(F)F)C(=O)c2ccccc21 [HB49, 2-Difluoromethyl-1,4-naphthoquinone] | –
101 to 102 °C | COc1c(C)c(Cc2ccc(Cl)cc2)c(OC)c2ccccc12 [P_TM75, 2-(4-Chloro-benzyl)-1,4-dimethoxy-3-methyl-naphthalene] | –
127 to 128 °C | COc1cc(CC2=C(C)C(=O)C3C=CC=CC3C2=O)cc(OC)c1 (stereo not shown) [P_TM58, 2-(3,5-Dimethoxy-benzyl)-3-methyl-4a,8a-dihydro-[1,4]naphthoquinone] | IC50 [1]: < 0.1 µM; IC50 (Pf-GHA; 72 h incubation): < 5 µM
112 to 114 °C | CC1=C(Cc2ccc(-c3ccc(C(C)(C)C)cc3)cc2)C(=O)c2ccccc2C1=O [P_TM66, 2-(4′-tert-Butyl-biphenyl-4-ylmethyl)-3-methyl-[1,4]naphthoquinone] | IC50 (Pf-GHA; 72 h incubation): < 5 µM
87 to 88 °C | COc1cccc(CC2=C(C)C(=O)c3ccccc3C2=O)c1 [P_TM96, 2-(3-Methoxy-benzyl)-3-methyl-[1,4]naphthoquinone] | –
162 °C | COC(=O)c1ccc(C(=O)C2=C(C)C(=O)c3ccccc3C2=O)cc1 [P_TM28, 4-(3-Methyl-1,4-dioxo-1,4-dihydro-naphthalene-2-carbonyl)-benzoic acid methyl ester] | –
201 °C (dec.) | CC1=C(C(=O)c2ccc(C(=O)O)cc2)C(=O)C2C=CC=CC2C1=O (stereo not shown) [P_TM22, 4-(3-Methyl-1,4-dioxo-1,4,4a,8a-tetrahydro-naphthalene-2-carbonyl)-benzoic acid] | –
131 to 132 °C | CC1=C(Cc2ccc(C(=O)NCCC#N)cc2)C(=O)C2C=CC=CC2C1=O (stereo not shown) [P_TM53, N-(2-Cyano-ethyl)-4-(3-methyl-1,4-dioxo-1,4,4a,8a-tetrahydronaphthalen-2-ylmethyl)-benzamide] | –
108 to 109 °C | CC1=C(Cc2cccc(Br)c2)C(=O)C2C=CC=CC2C1=O (stereo not shown) [P_TM99, 2-Methyl-3-(3-bromo-benzyl)-4a,8a-dihydro-[1,4]naphthoquinone] | –
146 to 147 °C | COc1ccccc1C(=O)C1=C(C)C(=O)C2C=CC=CC2C1=O (stereo not shown) [P_TM35, 2-Methyl-3-(2-methoxy-benzoyl)-4a,8a-dihydro-[1,4]naphthoquinone] | –
103 to 104 °C | CC1=C(Cc2ccccc2)C(=O)C2C=CC=CC2C1=O (stereo not shown) [P_TM62, 2-Methyl-3-benzyl-4a,8a-dihydro-[1,4]naphthoquinone] | antimalarial activity against Dd2 ([1]; compared with substituted benzyl derivatives): less active
– | CC1=C(C(=O)c2ccc(Cl)cc2)C(=O)C2C=CC=CC2C1=O (stereo not shown) [P_TM38, 2-Methyl-3-(4-chloro-benzoyl)-4a,8a-dihydro-[1,4]naphthoquinone] | IC50 (Pf-GHA; 72 h incubation): < 5 µM
103 to 104 °C | O=C1C(Cc2ccc(Br)cc2)=C(C(F)F)C(=O)c2ccccc21 [P_TM101, 2-(4-Bromo-benzyl)-3-difluoromethyl-[1,4]naphthoquinone] | –
118 to 119 °C | CC1=C(Cc2ccc(F)cc2)C(=O)C2C=CC=CC2C1=O (stereo not shown) [P_TM26, 2-Methyl-3-(4-fluoro-benzyl)-4a,8a-dihydro-[1,4]naphthoquinone] | –
148 to 149 °C | CC1=C(Cc2ccc(NC(=O)OC(C)(C)C)cc2)C(=O)C2C=CC=CC2C1=O (stereo not shown) [P_TM45, [4-(3-Methyl-1,4-dioxo-1,4,4a,8a-tetrahydro-naphthalen-2-ylmethyl)-phenyl]-carbamic acid tert-butyl ester] | –
63 to 65 °C | COc1c(C)c(Cc2ccc(N3CCN(Cc4ccc(C(C)(C)C)cc4)CC3)cc2)c(OC)c2ccccc12 [P_TM78, 1-(4-tert-Butyl-benzyl)-4-[4-(1,4-dimethoxy-3-methyl-naphthalen-2-ylmethyl)-phenyl]piperazine] | –
